Test results as given in patent US20250205344A1, “2,4-DIOXOTETRAHYDROPYRIMIDINYL DERATIVES AS DEGRONS IN PROTACS” (GLAXOSMITHKLINE INTELLECTUAL PROPERTY DEVELOPMENT LIMITED, priority 2022, published 2025).
Counter-ions that a name gives are not always drawn.

Each compound was assayed against T1, Androgen Receptor (Homo sapiens, UniProt P10275, T878A) (assay: Androgen Receptor Degradation Assay (Nano-Glo HiBiT)). Conditions: LNCaP, 18 h, HiBiT-tagged AR in human LnCaP cells, read-out: mean asymptote max.
T1 construct: the AR gene was modified, using CRISPR/Cas9 editing, so the expressed AR protein included an 11 amino acid HiBiT tag; endogenous in cells; host or cells: clonal LnCaP-derived line, AR gene edited by CRISPR/Cas9
Assay type: cell-based
Method: Degradation of Androgen Receptor protein in human LnCaP cells treated with PROTACs was quantified using the Nano-Glo® HiBiT Lytic Detection System (Promega) in 384 well assay plate format. A clonal LnCaP derived cell line was first established in which the AR gene was modified, using CRISPR/Cas9 editing, so the expressed AR protein included an 11 amino acid HiBiT tag at its amino-terminus. 10 mM DMSO stock solutions of PROTACs were prepared and diluted across an 11 concentration, 3 fold increment range, and 25 nL dispensed into a white opaque bottomed 384 well assay plate (Thermofisher) using an acoustic ECHO dispenser (Labcyte). […] For the assay, cells were detached from flask and resuspended with assay medium (FluoroBrite™ DMEM supplemented with 10% heat inactivated FBS, penicillin 50 U/mL and streptomycin 50 ug/mL (Thermofisher)). The cell suspension was centrifuged at 400 g for 5 min and the pellet resuspended in assay medium. 25 μL of cell suspension containing 10,000 cells was dispensed into each well of the assay plate containing the test compounds, which was then incubated for 18 h at 37° C./5% CO2. Control wells were included on each assay plate, with assay medium without cells being the no AR remaining 100% effect control, and cells treated with DMSO vehicle only, without PROTAC, the 0% effect control. 25 μL of Nano-Glo® HiBiT lysis buffer supplemented with LgBiT protein and Nano-Glo® substrate (Promega) was added to each well and the plate shaken at 500 rpm for 10 min at room temperature. The intensity of luminescence was measured using a PHERAstar microplate reader (BMG Labtech) and the % AR protein remaining in each well calculated by normalising the raw luminescence value to the above control wells. Parameters corresponding to the potency and efficacy estimates of the PROTACs were obtained from these normalised luminescence values using software (IDBS ActivityBase). These included the DC50 and the Dmax estimates. Two versions of the DC50, called relative DC50 and absolute DC50, were typically generated. These are the inflection point of a fitted 4 parameter sigmoidal response curve and the interpolated concentration of PROTAC corresponding to 50% of the protein being degraded, respectively. The Dmax parameter was the maximum experimentally observed degradation and the asymptote max parameter the fitted response curve asymptote maximum.

T1 sequence (P10275 whole entry T878A): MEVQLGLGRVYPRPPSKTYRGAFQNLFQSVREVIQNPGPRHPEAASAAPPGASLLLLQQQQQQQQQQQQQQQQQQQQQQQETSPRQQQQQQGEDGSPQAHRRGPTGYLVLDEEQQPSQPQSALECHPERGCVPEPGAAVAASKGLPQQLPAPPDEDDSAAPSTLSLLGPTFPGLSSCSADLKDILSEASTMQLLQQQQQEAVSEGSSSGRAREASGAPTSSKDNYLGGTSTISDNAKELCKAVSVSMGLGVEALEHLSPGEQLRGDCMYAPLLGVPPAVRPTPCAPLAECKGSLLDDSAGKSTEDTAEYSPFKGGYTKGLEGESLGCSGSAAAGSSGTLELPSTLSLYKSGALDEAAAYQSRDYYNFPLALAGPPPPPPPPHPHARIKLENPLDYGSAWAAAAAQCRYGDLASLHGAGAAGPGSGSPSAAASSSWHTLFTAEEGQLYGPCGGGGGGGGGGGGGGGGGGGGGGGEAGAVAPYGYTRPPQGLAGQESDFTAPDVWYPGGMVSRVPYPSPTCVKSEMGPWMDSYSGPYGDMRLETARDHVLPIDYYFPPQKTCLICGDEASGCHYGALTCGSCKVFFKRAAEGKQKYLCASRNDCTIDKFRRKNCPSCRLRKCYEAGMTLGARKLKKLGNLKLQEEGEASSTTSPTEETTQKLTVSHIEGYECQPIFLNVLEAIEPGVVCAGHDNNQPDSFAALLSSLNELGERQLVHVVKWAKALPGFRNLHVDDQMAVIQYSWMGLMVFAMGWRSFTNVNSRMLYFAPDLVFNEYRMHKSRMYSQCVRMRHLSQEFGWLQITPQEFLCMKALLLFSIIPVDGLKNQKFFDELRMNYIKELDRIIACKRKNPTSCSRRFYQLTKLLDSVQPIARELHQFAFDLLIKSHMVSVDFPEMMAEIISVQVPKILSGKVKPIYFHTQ
T1 sequence (Q96SW2 whole entry partner): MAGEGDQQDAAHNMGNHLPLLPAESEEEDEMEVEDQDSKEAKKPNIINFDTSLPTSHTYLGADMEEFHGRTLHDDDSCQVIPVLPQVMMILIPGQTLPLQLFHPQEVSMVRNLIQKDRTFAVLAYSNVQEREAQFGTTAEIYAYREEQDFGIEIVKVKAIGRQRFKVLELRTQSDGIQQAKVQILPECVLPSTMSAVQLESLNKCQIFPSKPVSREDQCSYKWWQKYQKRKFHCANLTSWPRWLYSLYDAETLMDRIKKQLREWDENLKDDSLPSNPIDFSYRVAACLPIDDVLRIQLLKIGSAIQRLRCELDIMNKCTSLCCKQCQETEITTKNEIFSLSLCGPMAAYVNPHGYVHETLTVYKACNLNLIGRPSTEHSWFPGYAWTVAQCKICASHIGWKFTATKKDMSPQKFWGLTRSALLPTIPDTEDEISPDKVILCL
T1 sequence (Q16531 whole entry partner): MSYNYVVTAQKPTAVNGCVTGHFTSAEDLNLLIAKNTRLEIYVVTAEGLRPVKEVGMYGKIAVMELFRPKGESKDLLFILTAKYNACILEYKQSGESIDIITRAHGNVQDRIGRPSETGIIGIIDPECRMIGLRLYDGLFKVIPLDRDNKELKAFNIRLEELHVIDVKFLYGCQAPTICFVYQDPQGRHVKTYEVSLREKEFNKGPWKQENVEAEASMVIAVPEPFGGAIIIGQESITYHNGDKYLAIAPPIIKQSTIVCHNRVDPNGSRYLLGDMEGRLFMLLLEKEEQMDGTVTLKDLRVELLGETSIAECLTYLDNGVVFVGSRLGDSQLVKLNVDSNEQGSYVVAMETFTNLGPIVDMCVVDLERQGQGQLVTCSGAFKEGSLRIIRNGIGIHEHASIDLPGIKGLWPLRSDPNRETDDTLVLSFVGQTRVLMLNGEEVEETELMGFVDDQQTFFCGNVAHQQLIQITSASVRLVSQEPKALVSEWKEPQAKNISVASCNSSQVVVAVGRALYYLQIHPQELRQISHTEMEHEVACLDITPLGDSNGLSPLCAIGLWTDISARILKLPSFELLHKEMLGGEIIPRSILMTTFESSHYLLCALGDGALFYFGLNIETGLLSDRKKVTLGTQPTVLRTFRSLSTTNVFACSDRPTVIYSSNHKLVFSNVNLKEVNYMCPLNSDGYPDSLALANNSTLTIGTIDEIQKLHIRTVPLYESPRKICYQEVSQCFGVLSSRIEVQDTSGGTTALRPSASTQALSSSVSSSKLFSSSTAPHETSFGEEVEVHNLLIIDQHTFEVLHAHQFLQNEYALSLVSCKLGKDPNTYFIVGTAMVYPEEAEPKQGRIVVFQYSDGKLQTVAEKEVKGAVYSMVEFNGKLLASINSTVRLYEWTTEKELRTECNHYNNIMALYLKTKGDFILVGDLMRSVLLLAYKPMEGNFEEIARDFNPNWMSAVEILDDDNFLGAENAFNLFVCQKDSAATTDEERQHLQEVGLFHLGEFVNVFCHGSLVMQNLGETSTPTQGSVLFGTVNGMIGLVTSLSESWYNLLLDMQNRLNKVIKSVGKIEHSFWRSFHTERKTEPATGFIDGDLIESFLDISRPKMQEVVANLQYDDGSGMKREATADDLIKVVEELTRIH

Row | Dmax [%] | Compound
1 | ≥ 50 | N#Cc1ccc(O[C@H]2CC[C@H](NC(=O)c3ccc(N4CCC(CN5CCC(n6ccc7c(N8CCC(=O)NC8=O)nccc76)CC5)CC4)nn3)CC2)cc1Cl [EAR148, N-((1r,4r)-4-(3-Chloro-4-cyanophenoxy)cyclohexyl)-6-(4-((4-(4-(2,4-dioxotetrahydropyrimidin-1(2H)-yl)-1H-pyrrolo[3,2-c]pyridin-1-yl)piperidin-1-yl)methyl)piperidin-1-yl)pyridazine-3-carboxamide]
2 | ≥ 50 | CC(C)n1ccc2c(N3CCC(=O)NC3=O)cc(C(=O)N3CCC4(CCN(CCCc5ccc(C(=O)N[C@H]6CC[C@H](Oc7ccc(C#N)c(Cl)c7)CC6)cc5)CC4)CC3)cc21 [EAR85, N-((1r,4r)-4-(3-Chloro-4-cyanophenoxy)cyclohexyl)-4-(3-(9-(4-(2,4-dioxotetrahydropyrimidin-1(2H)-yl)-1-isopropyl-1H-indole-6-carbonyl)-3,9-diazaspiro[5.5]undecan-3-yl)propyl)benzamide]
3 | ≥ 50 | N#Cc1ccc(O[C@H]2CC[C@H](NC(=O)c3ccc(N4CCC(CN5CCC(n6ncc7c(N8CCC(=O)NC8=O)nccc76)CC5)CC4)nn3)CC2)cc1C(F)(F)F [EAR209, N-((1r,4r)-4-(4-cyano-3-(trifluoromethyl)phenoxy)cyclohexyl)-6-(4-((4-(4-(2,4-dioxotetrahydropyrimidin-1(2H)-yl)-1H-pyrazolo[4,3-c]pyridin-1-yl)piperidin-1-yl)methyl)piperidin-1-yl)pyridazine-3-carboxamide]
4 | ≥ 50 | N#Cc1ccc(O[C@H]2CC[C@H](NC(=O)c3ccc(N4CCC(CN5CCC(n6ccc7c(N8CCC(=O)NC8=O)c(F)ccc76)CC5)CC4)nn3)CC2)cc1Cl [EAR170, N-((1r,4r)-4-(3-Chloro-4-cyanophenoxy)cyclohexyl)-6-(4-((4-(4-(2,4-dioxotetrahydropyrimidin-1(2H)-yl)-5-fluoro-1H-indol-1-yl)piperidin-1-yl)methyl)piperidin-1-yl)pyridazine-3-carboxamide, hydrochloride]
5 | ≥ 50 | CC(C)n1ccc2c(N3CCC(=O)NC3=O)cc(C(=O)N3CCN(c4ccc(C(=O)N[C@H]5CC[C@H](Oc6ccc(C#N)c(Cl)c6)CC5)nn4)CC3)cc21 [EAR77, N-((1r,4r)-4-(3-Chloro-4-cyanophenoxy)cyclohexyl)-6-(4-(4-(2,4-dioxotetrahydropyrimidin-1(2H)-yl)-1-isopropyl-1H-indole-6-carbonyl)piperazin-1-yl)pyridazine-3-carboxamide]
6 | ≥ 50 | N#Cc1ccc(O[C@H]2CC[C@H](NC(=O)c3cnc(N4CCC(CN5CCC(n6ccc7c(N8CCC(=O)NC8=O)nccc76)CC5)CC4)nc3)CC2)cc1Cl [EAR211, N-((1r,4r)-4-(3-chloro-4-cyanophenoxy)cyclohexyl)-2-(4-((4-(4-(2,4-dioxotetrahydropyrimidin-1(2H)-yl)-1H-pyrrolo[3,2-c]pyridin-1-yl)piperidin-1-yl)methyl)piperidin-1-yl)pyrimidine-5-carboxamide hydrochloride]
7 | ≥ 50 | N#Cc1ccc(O[C@H]2CC[C@H](NC(=O)c3ccc(N4CCC(C#N)(CCN5CCC(n6ncc7c(N8CCC(=O)NC8=O)cccc76)CC5)CC4)nn3)CC2)cc1Cl [EAR221, N-((1r,4r)-4-(3-chloro-4-cyanophenoxy)cyclohexyl)-6-(4-cyano-4-(2-(4-(4-(2,4-dioxotetrahydropyrimidin-1(2H)-yl)-1H-indazol-1-yl)piperidin-1-yl)ethyl)piperidin-1-yl)pyridazine-3-carboxamide]

Second part, the compound before the results:

Row | Compound | Dmax [%]
8 | C[C@@H]1CN(C(=O)Nc2cnc(N3CCC(CN4CCC(n5ccc6c(N7CCC(=O)NC7=O)cccc65)CC4)CC3)nc2)[C@@H](C)CN1c1ccc(C#N)c(Cl)c1 (racemic) [EAR114, rac-(trans)-4-(3-Chloro-4-cyanophenyl)-N-(2-(4-((4-(4-(2,4-dioxotetrahydropyrimidin-1(2H)-yl)-1H-indol-1-yl)piperidin-1-yl)methyl)piperidin-1-yl)pyrimidin-5-yl)-2,5-dimethylpiperazine-1-carboxamide] | ≥ 50
9 | N#Cc1ccc(O[C@H]2CC[C@H](NC(=O)c3ccc(N4CCC(CN5CCC(n6ccc7c(N8CCC(=O)NC8=O)cc(Cl)cc76)CC5)CC4)nn3)CC2)cc1Cl [EAR32, 6-(4-((4-(6-Chloro-4-(2,4-dioxotetrahydropyrimidin-1(2H)-yl)-1H-indol-1-yl)piperidin-1-yl)methyl)piperidin-1-yl)-N-((1r,4r)-4-(3-chloro-4-cyanophenoxy)cyclohexyl)pyridazine-3-carboxamide hydrochloride] | ≥ 50
10 | N#Cc1ccc(O[C@H]2CC[C@H](NC(=O)c3ccc(N4CCC(n5ccc6c(N7CCC(=O)NC7=O)cccc65)CC4)cc3)CC2)cc1Cl [EAR54, N-((1r,4r)-4-(3-Chloro-4-cyanophenoxy)cyclohexyl)-4-(4-(4-(2,4-dioxotetrahydropyrimidin-1(2H)-yl)-1H-indol-1-yl)piperidin-1-yl)benzamide] | ≥ 50
11 | N#Cc1ccc(O[C@H]2CC[C@H](NC(=O)c3ccc(N4CCC(CN5CCC(n6ncc7c(N8CCC(=O)NC8=O)cccc76)CC5)CC4)nc3)CC2)cc1Cl [EAR42, N-((1r,4r)-4-(3-Chloro-4-cyanophenoxy)cyclohexyl)-6-(4-((4-(4-(2,4-dioxotetrahydropyrimidin-1(2H)-yl)-1H-indazol-1-yl)piperidin-1-yl)methyl)piperidin-1-yl)nicotinamide hydrochloride] | ≥ 50
12 | CC(C)n1ccc2c(N3CCC(=O)NC3=O)cc(C(=O)N(C)CC3CCN(CCC4CCN(c5ccc(N6C(=S)N(c7ccc(C#N)c(C(F)(F)F)c7)C(=O)C6(C)C)cc5)CC4)CC3)cc21 [EAR91, N-((1-(2-(1-(4-(3-(4-Cyano-3-(trifluoromethyl)phenyl)-5,5-dimethyl-4-oxo-2-thioxoimidazolidin-1-yl)phenyl)piperidin-4-yl)ethyl)piperidin-4-yl)methyl)-4-(2,4-dioxotetrahydropyrimidin-1(2H)-yl)-1-isopropyl-N-methyl-1H-indole-6-carboxamide] | ≥ 50
13 | C[C@@H]1CN(c2ccc(C#N)c(Cl)c2)[C@@H](C)CN1C(=O)Nc1ccc(N2CCC(CCN3CCC(n4ccc5c(N6CCC(=O)NC6=O)cccc54)CC3)CC2)nc1 [EAR117, (2R,5S)-4-(3-Chloro-4-cyanopheny)-N-(6-(4-(2-(4-(4-(2,4-dioxotetrahydropyrimidin-1(2H)-yl)-1H-indol-1-yl)piperidin-1-yl)ethyl)piperidin-1-yl)pyridin-3-yl)-2,5-dimethylpiperazine-1-carboxamide] | ≥ 50
14 | N#Cc1ccc(O[C@H]2CC[C@H](NC(=O)c3cnc(N4CCC(CN5CCC(n6ccc7c(N8CCC(=O)NC8=O)cccc76)CC5)CC4)cn3)CC2)cc1Cl [EAR9, N-((1r,4r)-4-(3-Chloro-4-cyanophenoxy)cyclohexyl)-5-(4-((4-(4-(2,4-dioxotetrahydropyrimidin-1(2H)-yl)-1H-indol-1-yl)piperidin-1-yl)methyl)piperidin-1-yl)pyrazine-2-carboxamide] | ≥ 50
15 | C[C@@H]1CN(c2ccc(C#N)c(Cl)c2)[C@@H](C)CN1C(=O)Nc1ccc(N2CCC(CN3CCC(n4ccc5c(N6CCC(=O)NC6=O)cccc54)CC3)CC2)nc1 [EAR108, (2R,5S)-4-(3-Chloro-4-cyanophenyl)-N-(6-(4-((4-(4-(2,4-dioxotetrahydropyrimidin-1(2H)-yl)-1H-indol-1-yl)piperidin-1-yl)methyl)piperidin-1-yl)pyridin-3-yl)-2,5-dimethylpiperazine-1-carboxamide] | ≥ 50
16 | CC(C)n1ccc2c(N3CCC(=O)NC3=O)cc(C(=O)N3CCN(CCCOc4ccc(C(=O)N[C@H]5CC[C@H](Oc6ccc(C#N)c(Cl)c6)CC5)nc4)CC3)cc21 [EAR59, N-((1r,4r)-4-(3-Chloro-4-cyanophenoxy)cyclohexyl)-5-(3-(4-(4-(2,4-dioxotetrahydropyrimidin-1(2H)-yl)-1-isopropyl-1H-indole-6-carbonyl)piperazin-1-yl)propoxy)picolinamide] | ≥ 50
17 | N#Cc1ccc(O[C@H]2CC[C@H](NC(=O)c3ccc(N4CC5CC(CN6CCC(n7ncc8c(N9CCC(=O)NC9=O)cccc87)CC6)(C5)C4)nn3)CC2)cc1Cl [EAR219, N-((1r,4r)-4-(3-chloro-4-cyanophenoxy)cyclohexyl)-6-(1-((4-(4-(2,4-dioxotetrahydropyrimidin-1(2H)-yl)-1H-indazol-1-yl)piperidin-1-yl)methyl)-3-azabicyclo[3.1.1]heptan-3-yl)pyridazine-3-carboxamide] | ≥ 50
